Measurements reported in patent publication US4923882A, “Novel amine derivatives, salts thereof and an anti-ulcer agent containing the same” (Toyama Chemical Co., Ltd., priority 1982, dated 1990).

Columns and labels:
gastric acid secretion [1] = assay: Inhibitory effect on gastric acid secretion, pylorus ligation method (histamine); assay type: in vivo, Wistar strain rats; details: Rattus norvegicus, oral, histamine 25 mg/kg s.c., read-out: Inhibition percentage (gastric acid secretion)
Description: Five to six Wistar strain rats (male, 190 to 230 g) per group were starved for 35 hours, after which each drug was orally administered, and after 2 hours, the pylorus of each rat was ligated under ether anesthesia. […] After 3 hours, each rat was killed, after which the cardiac portion was ligated, and the stomach was removed. After 1 ml of distilled water was injected into the stomach, the gastric juice was collected by centrifugation and its volume was measured. The acidity of the gastric juice was measured by titrating 1 ml of the gastric juice with a 0.1N aqueous sodium hydroxide solution, taking pH 7.0 as the end-point. Physiological saline was administered to a control group.
The inhibition percentage of gastric acid secretion was determined from the following equation: [formula]

gastric acid secretion [2] = assay: Inhibitory effect on gastric acid secretion, perfused stomach preparation of anesthetized rat (histamine stimulated); assay type: in vivo, Wistar strain rats; details: intravenous; for ED100: Rattus norvegicus, cumulative, histamine 30 μg/kg/min, read-out: Dose for complete inhibition; for Duration: time from complete inhibition until pH of perfusate became 4
Description: (i) Perfused stomach preparation of anesthetized rat [according to M. N. Ghosh and H. O. Schild: Brit. J. Pharmacol. 13, 54 (1958)]
Wistar strain rats (male, 200 to 250 g) starved for 18 hours were anesthetized with urethane and then subjected to laparotomy, after which the forestomach region of the stomach of each rat was incised. The whole interior of the stomach was sufficiently washed with physiological saline, and the cut edges were sutured. A silicon tube was inserted into the stomach to a length of about 5 mm from the duodenum side and fixed. Subsequently, the stomach was perfused with physiological saline adjusted to a pH of about 10 with an aqueous sodium hydroxide solution at a constant rate (1 ml/min) through an oral sonde, and the change in pH of the perfusate which had flowed out through the silicone tube was continuously recorded. During the perfusion, histamine (30 μg/kg/min) was continuously injected, as an agent for stimulating gastric acid secretion, through the femoral vein at a rate of 0.3 ml/min. Each drug was intravenously administered when the acid secretion became almost constant (pH 3.3±0.2), and cumulatively administered when the inhibition of acid secretion at each dose reached a plateau.
The number of experiments was three for each dose.

[3] = tested on: Stress ulcer induced by water-immersion; assay: Anti-ulcer activity: Stress ulcer induced by water-immersion; assay type: in vivo, Wistar rats; details: for Inhibition percentage / ED50: oral; for Potency ratio: Cimetidine = 1; for ED50: Rattus norvegicus, 15 h, water-immersion stress ulcer, read-out: ID50 (the source's name)
Description: (iii) Stress ulcer induced by water-immersion
An experiment was carried out according to the method of Takagi et al. [K. Takagi et al., Jap.
Six Wistar rats (male, 230 to 280 g) per group were starved for 24 hours, after which each drug was orally administered. After 30 minutes, the rats were placed in stress cage, immersed in water at 23° C. to the depth of xiphoid, and allowed to stand therein for 15 hours. Thereafter, the stomach of each rat was removed and then fixed with 3% formalin, after which the areas of the ulcers formed were measured under the binocular stereoscopic microscope (10×), and the sum total of the areas was taken as the ulcer index. To a control group was administered 0.5% Tween 80 physiological saline.
The inhibition percentage was determined from the following equation: [formula]

Reserpine ulcer = assay: Anti-ulcer activity: Reserpine ulcer; assay type: in vivo, Wistar strain rats; details: oral; for ED50: Rattus norvegicus, 18 h, reserpine ulcer, read-out: ID50 (the source's name)
Description: An experiment was carried out according to the method of Adami et al. [E. Adami et al., Arch. int.
Ten Wistar strain rats (male, 180 to 200 g) per group were starved for 30 hours, after which each drug was orally administered, and after 1 hour, reserpine was injected subcutaneously at a dose of 10 mg/kg. After 18 hours, the stomach was removed and fixed with 3% formalin, and thereafter the lengths of the ulcers formed in the stomach were measured with callipers. The measured values were converted to the scores described below, and the sum total of the scores was taken as the ulcer index.
That is to say, 1 to 5 pin point ulcers are scored as 1, 6 or more pin point ulcers are scored as 2, ulcers of 1 mm or less in length are scored as 1, ulcers of 1 to 2 mm in length are scored as 2, ulcers of 2 to 4 mm in length are scored as 4, and ulcers of 4 mm or more in length are scored as 8.
To a control group was administered 0.5% Tween 80 physiological saline. The inhibition percentage was determined from the following equation: [formula]

Indomethacin ulcer = assay: Anti-ulcer activity: Indomethacin ulcer; assay type: in vivo, Wistar strain rats; details: for Potency ratio: Cimetidine = 1; for ED50: 5 h, Indomethacin ulcer, read-out: ID50 (the source's name)
Description: Six Wistar strain rats (male, 200 to 250 g) per group were starved for 24 hours, after which each drug was orally administered, and after 30 minutes, Indomethacin was injected subcutaneously at a dose of 30 mg/kg. After 5 hours, each rat was killed, and the stomach was removed and fixed with 3% formalin, after which the lengths of ulcers formed in the stomach was measured under the binocular stereoscopic microscope (10×), and the sum total of the lengths was taken as the ulcer index. To a control group was administered 0.5% Tween 80 physiological saline. The inhibition percentage was determined from the following equation: [formula]

[4] = Rattus norvegicus, oral, read-out: Inhibition percentage

SMILES | inhibition in vivo at 3 mg/kg (gastric acid secretion [1]) | ED100 (gastric acid secretion [2]) | Duration (gastric acid secretion [2]) | inhibition in vivo at 1 mg/kg (gastric acid secretion [1]) | other results
Cc1ccsc1C(O)CNC(=C[N+](=O)[O-])NCCCOc1cccc(CN2CCCCC2)c1 (stereo not drawn) [compound 18, N-[2-hydroxy-2-(3-methyl-2-thienyl)ethyl]-2-nitro-N'-[3-(3-piperidinomethylphenoxy)propyl]-1,1-ethenediamine] | 87% | 0.3 mg/kg | 247 min | – | –
Cc1cc(CSCCNC(=C[N+](=O)[O-])NCC(O)c2cccc(C(F)(F)F)c2)sc1CN(C)C (stereo not drawn) [compound 33, N-{2-[[5-(dimethylamino)methyl-4-methyl-2-thienyl]methylthio]ethyl}-N'-[2-hydroxy-2-(3-trifluoromethylphenyl)ethyl]-2-nitro-1,1-ethenediamine] | – | 0.3 mg/kg | > 240 min | 55% | Inhibition percentage ([3]; 1 mg/kg): 32%; Inhibition percentage ([3]; 3 mg/kg): 75%; Potency ratio [3]: 9.8; ED50 [3]: 1.58 mg/kg; Inhibition percentage (Reserpine ulcer; 1 mg/kg): 42%; Inhibition percentage (Reserpine ulcer; 3 mg/kg): 68%; ED50 (Reserpine ulcer): 1.4 mg/kg
O=[N+]([O-])C=C(NCCCOc1cccc(CN2CCCCC2)c1)NCC(O)c1ccccc1 (stereo not drawn) [compound 11, N-(β-hydroxyphenethyl)-2-nitro-N'-[3-(3-piperidinomethylphenoxy)propyl]-1,1-ethenediamine] | 79% | 0.05 mg/kg | 123 min | – | inhibition in vivo at 10 mg/kg (gastric acid secretion [1]): 81%
O=[N+]([O-])C=C(NCCCOc1cccc(CN2CCCCC2)c1)NCC(O)c1ccc(O)cc1 (stereo not drawn) [compound 12, N-[2-hydroxy-2-(4-hydroxyphenyl)ethyl]-2-nitro-N'-[3-(3-piperidinomethylphenoxy)propyl]-1,1-ethenediamine] | 87% | 0.15 mg/kg | > 240 min | – | –
CN(C)Cc1ccc(CSCCNC(=C[N+](=O)[O-])NCC(O)c2cccs2)o1 (stereo not drawn) [compound 6] | 67% | 0.1 mg/kg | 132 min | – | inhibition in vivo at 10 mg/kg (gastric acid secretion [1]): 93%
CN(C)Cc1ccc(CSCCNC(=C[N+](=O)[O-])NCC(O)c2ccc(Cl)cc2)o1 (stereo not drawn) [compound 5, N-[2-(4-chlorophenyl)-2-hydroxyethyl]-N'-{2-[[5-(dimethylamino)methyl-2-furyl]methylthio]ethyl}-2-nitro-1,1-ethenediamine] | 80% | 0.1 mg/kg | 192 min | – | –
O=[N+]([O-])C=C(NCCCOc1cccc(CN2CCCCC2)c1)NCC(O)c1cccc(O)c1 (stereo not drawn) [compound 13, N-[2-hydroxy-2-(3-hydroxyphenyl)ethyl]-2-nitro-N'-[3-(3-piperidinomethylphenoxy)propyl]-1,1-ethenediamine] | – | 0.1 mg/kg | > 240 min | 51% | –
Cc1cccc(C(O)CNC(=C[N+](=O)[O-])NCCSCc2cc(C)c(CN(C)C)s2)c1 (stereo not drawn) [compound 29, N-{2-[[5-(dimethylamino)methyl-4-methyl-2-thienyl]methylthio]ethyl}-N'-[2-hydroxy-2-(3-methylphenyl)ethyl]-2-nitro-1,1-ethenediamine] | – | 0.3 mg/kg | > 177 min | 56% | Inhibition percentage ([3]; 1 mg/kg): 37%; Inhibition percentage ([3]; 3 mg/kg): 78%; Potency ratio [3]: 11.1; ED50 [3]: 1.4 mg/kg; Potency ratio (Indomethacin ulcer): 31.3; ED50 (Indomethacin ulcer; Rattus norvegicus, oral): 0.88 mg/kg; inhibition in vivo at 0.3 mg/kg (Indomethacin ulcer; Rattus norvegicus, 0.3 mg/kg, oral, read-out: Inhibition percentage): 8%; inhibition in vivo at 1 mg/kg (Indomethacin ulcer; [4]): 57%; Inhibition percentage (Reserpine ulcer; 1 mg/kg): 21%; Inhibition percentage (Reserpine ulcer; 3 mg/kg): 41%; ED50 (Reserpine ulcer): 4.7 mg/kg
Cc1cc(CSCCNC(=C[N+](=O)[O-])NCC(O)c2cccc(Br)c2)sc1CN(C)C (stereo not drawn) [compound 32, N-[2-(3-bromophenyl)-2-hydroxyethyl]-N'-{2-[[5-(dimethylamino)methyl-4-methyl-2-thienyl]methylthio]ethyl}-2-nitro-1,1-ethenediamine] | – | 0.3 mg/kg | > 220 min | – | inhibition in vivo at 1.5 mg/kg (gastric acid secretion [1]; 1.5 mg/kg): 60%; Potency ratio (Indomethacin ulcer): 15.2; ED50 (Indomethacin ulcer; Rattus norvegicus, oral): 1.81 mg/kg; inhibition in vivo at 1 mg/kg (Indomethacin ulcer; [4]): 24%; inhibition in vivo at 3 mg/kg (Indomethacin ulcer; Rattus norvegicus, 3 mg/kg, oral, read-out: Inhibition percentage): 72%; Inhibition percentage (Reserpine ulcer; 1 mg/kg): 38%; Inhibition percentage (Reserpine ulcer; 3 mg/kg): 55%; ED50 (Reserpine ulcer): 2.15 mg/kg
Cc1ccsc1C(O)CNC(=C[N+](=O)[O-])NCCSCc1ccc(CN(C)C)o1 (stereo not drawn) [compound 7, N-{2-[[5-(dimethylamino)methyl-2-furyl]methylthio]ethyl}-N'-[2-hydroxy-2-(3-methyl-2-thienyl)ethyl]-2-nitro-1,1-ethenediamine] | 88% | 0.1 mg/kg | 227 min | – | –
COc1ccc(C(O)CNC(=C[N+](=O)[O-])NCCCOc2cccc(CN3CCCCC3)c2)cc1 (stereo not drawn) [compound 14, N-[2-hydroxy-2-(4-methoxyphenyl)ethyl]-2-nitro-N'-[3-(3-piperidinomethylphenoxy)propyl]-1,1-ethenediamine] | – | 0.15 mg/kg | 158 min | 61% | –
